This note sets out measurements from ChEMBL document CHEMBL4732190, “Identification of Potent and Long-Acting Single-Chain Peptide Mimetics of Human Relaxin-2 for Cardiovascular Diseases” (J Med Chem, 2021).

SMILES strings stand for the structures. *1 amine or outer side, *2 acyl side, *3 side chain or, on linkers, in order; H or OH if unused. Where a SMILES comes first, the peptide text is derived from it. [ ]: non-standard residue; d: D form. ξ: configuration not given here. β2hAla(2S) = C[C@@H](CN[*:1])C(=O)[*:2]; ξβ2hAla = CC(CN[*:1])C(=O)[*:2]

One experiment deals with T1, Relaxin receptor 1 (Homo sapiens, UniProt Q9HBX9).
T1 sequence (Q9HBX9 whole entry): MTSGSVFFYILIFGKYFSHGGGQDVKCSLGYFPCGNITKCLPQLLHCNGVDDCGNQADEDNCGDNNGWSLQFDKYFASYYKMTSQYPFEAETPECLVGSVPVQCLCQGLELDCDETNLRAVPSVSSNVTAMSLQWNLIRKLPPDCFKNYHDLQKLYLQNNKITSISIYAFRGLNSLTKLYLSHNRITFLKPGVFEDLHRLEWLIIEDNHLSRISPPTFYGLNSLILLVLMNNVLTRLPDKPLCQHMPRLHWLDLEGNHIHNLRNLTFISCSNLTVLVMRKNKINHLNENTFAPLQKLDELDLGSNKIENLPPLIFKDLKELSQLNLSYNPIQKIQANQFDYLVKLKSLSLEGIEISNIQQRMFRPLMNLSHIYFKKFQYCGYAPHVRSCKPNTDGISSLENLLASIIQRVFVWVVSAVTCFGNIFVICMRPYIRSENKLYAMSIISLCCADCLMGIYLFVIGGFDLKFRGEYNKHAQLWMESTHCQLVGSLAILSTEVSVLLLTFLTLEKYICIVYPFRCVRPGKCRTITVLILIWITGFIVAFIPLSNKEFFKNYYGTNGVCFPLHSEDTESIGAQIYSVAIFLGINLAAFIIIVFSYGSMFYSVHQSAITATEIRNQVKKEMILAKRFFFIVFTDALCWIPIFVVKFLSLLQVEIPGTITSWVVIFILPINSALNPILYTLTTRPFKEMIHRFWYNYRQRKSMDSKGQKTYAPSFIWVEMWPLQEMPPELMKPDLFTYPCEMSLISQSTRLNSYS
Nature of the experiment: Agonist activity at RXFP1 endogenously expressed in human OVCAR-5 cells assessed as increase in IBMX-induced cAMP accumulation pretreated with IBMX for 40 mins followed by compound addition and measured after 30 mins by HTRF assay. It is filed as functional, cell-based. A general note: Changes in cAMP serve as a functional read-out for many G protein-coupled receptors.

Experiment [1] addresses T2, Relaxin receptor 1 (Homo sapiens) (UniProt Q9HBX9).
T2 sequence (whole entry): T1 sequence (Q9HBX9 whole entry)
Nature of the experiment: Agonist activity at RXFP1 endogenously expressed in human OVCAR-5 cells assessed as increase in IBMX-induced cAMP accumulation pretreated with IBMX for 40 mins followed by compound addition and measured after 30 mins by HTRF assay relative to relaxin. Type of experiment: functional, cell-based. To be noted: filed as agonist.

For `CC[C@H](C)[C@H](NC(=O)[C@H](CCC(N)=O)NC(=O)[C@H](C)NC(=O)[C@H](CCCNC(=N)N)NC(=O)[C@@H](NC(=O)[C@H](CC(C)C)NC(=O)[C@H](CCC(=O)O)NC(=O)[C@H](CCCNC(=N)N)NC(=O)CNC(=O)[C@H](CO)NC(=O)[C@H](CC(C)C)NC(=O)[C@H](CCCCN)NC(=O)[C@@H](NC(=O)[C@@H](NC(=O)[C@H](CCC(=O)O)NC(=O)[C@H](CCC(=O)O)NC(C)=O)C(C)C)[C@@H](C)CC)C(C)C)C(=O)NC[C@H](C)C(=O)NC[C@H](C)C(=O)N[C@@H](CO)C(=O)NCC(=O)N[C@@H](CCSC)C(=O)N[C@@H](CO)C(=O)N[C@H](C(=O)N[C@@H](Cc1c[nH]c2ccccc12)C(=O)N[C@@H](CO)C(=O)N[C@@H](CCCCN)C(=O)N[C@@H](CCCNC(=N)N)C(=O)N[C@@H](CCCCN)C(=O)N[C@@H](CCCCN)C(N)=O)[C@@H](C)O` (HELM PEPTIDE1{[ac].E.E.V.I.K.L.S.G.R.E.L.V.R.A.Q.I.[C[C@@H](CN[*:1])C(=O)[*:2]].[C[C@@H](CN[*:1])C(=O)[*:2]].S.G.M.S.T.W.S.K.R.K.K.[am]}$$$$V2.0), at Relaxin receptor 1, the EC50 amounted to 37 nM. The maximal effect (Emax) in experiment [1] is 94%.

With `CC[C@H](C)[C@H](NC(=O)[C@H](CCC(N)=O)NC(=O)[C@H](C)NC(=O)[C@H](CCCNC(=N)N)NC(=O)[C@@H](NC(=O)[C@H](CC(C)C)NC(=O)[C@H](CCC(=O)O)NC(=O)[C@H](CCCNC(=N)N)NC(=O)CNC(=O)[C@H](CO)NC(=O)[C@H](CC(C)C)NC(=O)[C@H](CCCCN)NC(=O)[C@@H](NC(=O)[C@@H](NC(=O)[C@H](CCC(=O)O)NC(=O)[C@H](CCC(=O)O)NC(C)=O)C(C)C)[C@@H](C)CC)C(C)C)C(=O)NC[C@H](C)C(=O)N[C@H](C(=O)N[C@@H](CO)C(=O)NCC(=O)N[C@@H](CCSC)C(=O)N[C@@H](CO)C(=O)N[C@H](C(=O)N[C@@H](Cc1c[nH]c2ccccc12)C(=O)N[C@@H](CO)C(=O)N[C@@H](CCCCN)C(=O)N[C@@H](CCCNC(=N)N)C(=O)N[C@@H](CO)C(=O)N[C@@H](CC(C)C)C(N)=O)[C@@H](C)O)[C@@H](C)CC` (HELM PEPTIDE1{[ac].E.E.V.I.K.L.S.G.R.E.L.V.R.A.Q.I.[C[C@@H](CN[*:1])C(=O)[*:2]].I.S.G.M.S.T.W.S.K.R.S.L.[am]}$$$$V2.0), on Relaxin receptor 1, the EC50 is 498 nM. Moreover, in experiment [1], the Emax was determined as 86%.

On to `CC[C@H](C)[C@H](NC(=O)[C@H](CCC(N)=O)NC(=O)[C@H](C)NC(=O)[C@H](CCCNC(=N)N)NC(=O)[C@@H](NC(=O)[C@H](CCCCN)NC(=O)[C@H](CCC(=O)O)NC(=O)[C@H](CCCNC(=N)N)NC(=O)CNC(=O)[C@H](CCC(=O)O)NC(=O)[C@H](CC(C)C)NC(=O)[C@H](CCCCN)NC(=O)[C@@H](NC(=O)[C@@H](NC(C)=O)C(C)C)[C@@H](C)CC)C(C)C)C(=O)NC[C@H](C)C(=O)NC[C@H](C)C(=O)N[C@@H](CCC(=O)O)C(=O)NCC(=O)N[C@@H](CCSC)C(=O)N[C@@H](CO)C(=O)N[C@@H](CCCCN)C(=O)N[C@@H](Cc1c[nH]c2ccccc12)C(=O)N[C@@H](CO)C(=O)NC[C@H](C)C(=O)N[C@@H](CCCNC(=N)N)C(=O)N[C@@H](CCCCN)C(=O)N[C@@H](CCCCN)C(N)=O` (Ac-VIKLEGREKVRAQI[β2hAla(2S)][β2hAla(2S)]EGMSKWS[β2hAla(2S)]RKK-NH2), for which the EC50 at Relaxin receptor 1 was found to be 19.5 nM. The maximum response (Emax) in experiment [1] is 99%.

On to `CC[C@H](C)[C@H](NC(=O)[C@H](CCC(N)=O)NC(=O)[C@H](C)NC(=O)[C@H](CCCNC(=N)N)NC(=O)[C@@H](NC(=O)[C@H](CC(C)C)NC(=O)[C@H](CCC(=O)O)NC(=O)[C@H](CCCNC(=N)N)NC(=O)CNC(=O)[C@H](CO)NC(=O)[C@H](CC(C)C)NC(=O)[C@H](CCCCN)NC(=O)[C@@H](NC(=O)[C@@H](NC(C)=O)C(C)C)[C@@H](C)CC)C(C)C)C(=O)N[C@@H](C)C(=O)NC[C@H](C)C(=O)N[C@@H](CO)C(=O)NCC(=O)N[C@@H](CCSC)C(=O)N[C@@H](CO)C(=O)N[C@H](C(=O)N[C@@H](Cc1c[nH]c2ccccc12)C(=O)N[C@@H](CO)C(=O)N[C@@H](CCCCN)C(=O)N[C@@H](CCCNC(=N)N)C(=O)N[C@@H](CCCCN)C(=O)N[C@@H](CCCCN)C(N)=O)[C@@H](C)O` (HELM PEPTIDE1{[ac].V.I.K.L.S.G.R.E.L.V.R.A.Q.I.A.[C[C@@H](CN[*:1])C(=O)[*:2]].S.G.M.S.T.W.S.K.R.K.K.[am]}$$$$V2.0), for which, on Relaxin receptor 1, the EC50 was determined as 393 nM. The Emax in experiment [1] was 102%.

As to `CC[C@H](C)[C@H](NC(=O)[C@H](CCC(N)=O)NC(=O)[C@H](C)NC(=O)[C@H](CCCNC(=N)N)NC(=O)[C@@H](NC(=O)[C@H](CCCCN)NC(=O)[C@H](CCC(=O)O)NC(=O)[C@H](CCCNC(=N)N)NC(=O)CNC(=O)[C@H](CCC(=O)O)NC(=O)[C@H](CC(C)C)NC(=O)[C@H](CCCCN)NC(=O)[C@@H](NC(=O)[C@@H](NC(=O)[C@H](CCC(=O)O)NC(=O)[C@H](CCC(=O)O)NC(C)=O)C(C)C)[C@@H](C)CC)C(C)C)C(=O)NCC(C)C(=O)NCC(C)C(=O)N[C@@H](CCC(=O)O)C(=O)NCC(=O)N[C@@H](CCSC)C(=O)N[C@@H](CO)C(=O)N[C@@H](CCCCN)C(=O)N[C@@H](Cc1c[nH]c2ccccc12)C(=O)N[C@@H](CO)C(=O)NC[C@H](C)C(=O)N[C@@H](CCCNC(=N)N)C(=O)N[C@@H](CCCCN)C(=O)N[C@@H](CCCCN)C(=O)O` (stereo partly drawn) (Ac-EEVIKLEGREKVRAQI[ξβ2hAla][ξβ2hAla]EGMSKWS[β2hAla(2S)]RKK-OH), the EC50 on Relaxin receptor 1 turned out to be 17 nM. In addition, in experiment [1], the Emax was found to be 95%.

For `CC[C@H](C)[C@H](NC(=O)[C@H](CCC(N)=O)NC(=O)[C@H](C)NC(=O)[C@H](CCCNC(=N)N)NC(=O)[C@@H](NC(=O)[C@H](CC(C)C)NC(=O)[C@H](CCC(=O)O)NC(=O)[C@H](CCCNC(=N)N)NC(=O)CNC(=O)[C@H](CO)NC(=O)[C@H](CC(C)C)NC(=O)[C@H](CCCCN)NC(=O)[C@@H](NC(=O)[C@@H](NC(C)=O)C(C)C)[C@@H](C)CC)C(C)C)C(=O)NC[C@H](C)C(=O)N[C@H](C(=O)N[C@@H](CO)C(=O)NCC(=O)N[C@@H](CCSC)C(=O)N[C@@H](CO)C(=O)N[C@H](C(=O)N[C@@H](Cc1c[nH]c2ccccc12)C(=O)N[C@@H](CO)C(=O)N[C@@H](CCCCN)C(=O)N[C@@H](CCCNC(=N)N)C(=O)N[C@@H](CO)C(=O)N[C@@H](CC(C)C)C(N)=O)[C@@H](C)O)[C@@H](C)CC` (HELM PEPTIDE1{[ac].V.I.K.L.S.G.R.E.L.V.R.A.Q.I.[C[C@@H](CN[*:1])C(=O)[*:2]].I.S.G.M.S.T.W.S.K.R.S.L.[am]}$$$$V2.0), the EC50 on Relaxin receptor 1 was found to be 708 nM. For the same compound, the Emax in experiment [1] came to 78%.

Take `CC[C@H](C)[C@H](NC(=O)[C@H](CCC(N)=O)NC(=O)[C@H](C)NC(=O)[C@H](CCCNC(=N)N)NC(=O)[C@@H](NC(=O)[C@H](CC(C)C)NC(=O)[C@H](CCC(=O)O)NC(=O)[C@H](CCCNC(=N)N)NC(=O)CNC(=O)[C@H](CO)NC(=O)[C@H](CC(C)C)NC(=O)[C@H](CCCCN)NC(=O)[C@@H](NC(=O)[C@@H](NC(=O)[C@H](CCC(=O)O)NC(=O)[C@H](CCC(=O)O)NC(C)=O)C(C)C)[C@@H](C)CC)C(C)C)C(=O)NC[C@H](C)C(=O)N[C@H](C(=O)N[C@@H](CCC(=O)O)C(=O)NCC(=O)N[C@@H](CCSC)C(=O)N[C@@H](CO)C(=O)N[C@@H](CCCCN)C(=O)N[C@@H](Cc1c[nH]c2ccccc12)C(=O)N[C@@H](CO)C(=O)N[C@@H](CCCCN)C(=O)N[C@@H](CCCNC(=N)N)C(=O)N[C@@H](CCCCN)C(=O)N[C@@H](CCCCN)C(N)=O)[C@@H](C)CC` (HELM PEPTIDE1{[ac].E.E.V.I.K.L.S.G.R.E.L.V.R.A.Q.I.[C[C@@H](CN[*:1])C(=O)[*:2]].I.E.G.M.S.K.W.S.K.R.K.K.[am]}$$$$V2.0): at Relaxin receptor 1, the EC50 turned out to be 230 nM. The Emax in experiment [1] was 101%.

Regarding `CC[C@H](C)[C@H](NC(=O)[C@H](CCC(N)=O)NC(=O)[C@H](C)NC(=O)[C@H](CCCNC(=N)N)NC(=O)[C@@H](NC(=O)[C@H](CC(C)C)NC(=O)[C@H](CCC(=O)O)NC(=O)[C@H](CCCNC(=N)N)NC(=O)CNC(=O)[C@H](CO)NC(=O)[C@H](CC(C)C)NC(=O)[C@H](CCCCN)NC(=O)[C@@H](NC(=O)[C@@H](NC(=O)[C@H](CCC(=O)O)NC(=O)[C@H](CCC(=O)O)NC(C)=O)C(C)C)[C@@H](C)CC)C(C)C)C(=O)NC[C@H](C)C(=O)N[C@H](C(=O)N[C@@H](CO)C(=O)NCC(=O)N[C@@H](CCSC)C(=O)N[C@@H](CO)C(=O)N[C@H](C(=O)N[C@@H](Cc1c[nH]c2ccccc12)C(=O)N[C@@H](CO)C(=O)N[C@@H](CCCCN)C(=O)N[C@@H](CCCNC(=N)N)C(=O)N[C@@H](CCCCN)C(=O)N[C@@H](CCCCN)C(N)=O)[C@@H](C)O)[C@@H](C)CC` (HELM PEPTIDE1{[ac].E.E.V.I.K.L.S.G.R.E.L.V.R.A.Q.I.[C[C@@H](CN[*:1])C(=O)[*:2]].I.S.G.M.S.T.W.S.K.R.K.K.[am]}$$$$V2.0), the EC50 on Relaxin receptor 1 turned out to be 143 nM. The Emax in experiment [1] turned out to be 94%.

As a reminder, the EC50 is the concentration giving half of the maximal effect. By Emax is commonly meant the size of the effect at its maximum, as opposed to the concentration needed.
